According to patent US12090204B2, “Photodynamic therapy compositions and methods of use thereof” (Pinnacle Biologics, Inc., priority 2020, dated 2024):
Several values for one entry are separate records, joined by “and”; a condition that tells them apart may be missing. Equal values may be shown once.

System: methicillin-resistant Staphylococcus aureus (MRSA), Staphylococcus aureus ATCC BAA 1768
Experiment: partial thickness wound model, microbial load in tissue biopsy (Example 4)
Type: in vivo, Yorkshire pig
Conditions: for TISSUE BIOPSY (CFU/mm^2) 24 hr. after treatment 2: individual wounds
Experimental: Bacteria strains were obtained from ATCC (Manassas, VA). Bacteria were propagated from glycerol stock store at −80° C. A stab of the glycerol stock was used to inoculate 5 mL of trypticase soy broth. The cultures were incubated overnight at 37° C. with shaking at 250 rpm. The following day, a portion of overnight culture was used to prepare a streak plate onto an Oxacillin screen plate which was incubated overnight at 37° C. and single colony isolates of freshly plated bacteria were used to prepare bacterial inoculum. The morning of wounding an infection, a portion of overnight culture was used to inoculate 50 mL of trypticase soy broth and the newly inoculated media was incubated at 37° C. with shaking at 250 rpm until log phase growth was reached. The bacteria were pelleted by centrifugation at 4,000 rpm at 4° C. for 10 minutes in a Sorval tabletop centrifuge. The culture supernatant was discarded, and the bacterial pellets were suspended in a volume of sterile PBS to yield a concentration of 2×10^7 CFU/mL.
Tissue samples were obtained using an 8 mm biopsy punch. The biopsy punch was placed into a homogenization tube containing 1 mL of sterile PBS and stainless steel homogenization beads and the tissues were homogenized in a Reich MM300 mixer mill homogenizer. Serial 10-fold dilutions of the tissue homogenates were prepared in sterile PBS and 100 microliters of select dilutions for each wound were plated onto agar plates. The plates were incubated at 35-37° C. and the colonies were enumerated manually. Microbial loads were normalized at CFU/mm^2 of tissue surface area per punch.
This study evaluated the ability of porfimer sodium to reduce/eliminate microbial colonization and biofilm from surgical sites in a partial thickness would healing model. The study was conducted in a single female Yorkshire pig over the course of five days. A dermatome was used to create 20 partial thickness wounds. Sixteen of the wounds were infected with methicillin-resistant Staphylococcus aureus (MRSA), and four were designated as uninfected controls. The wounds were bandaged and the bacterial biofilm allowed to develop for 48 hours.
Designated infected wounds were subjected to two courses of treatment with the test article at a periodicity of 24 hours. […]
Treatments consisted of application of the test article followed by photoactivation with one or two intensities of light, 150 J/cm^2 or 200 J/cm^2 (Table 3). Wounds were evaluated for microbial load prior to each course of treatment, immediately following the final treatment and 24 hours following the final treatment. […]

porfimer sodium
Mean microbial load, Tissue (Group 3 (150 J/cm^2), N 6): 8.13E+03 CFU/mm^2
TISSUE BIOPSY (CFU/mm^2) 24 hr. after treatment 2 (Group 3 = 150 J/cm2 treatment): 4.28E+03 CFU/mm^2 and 1.57E+04 CFU/mm^2 and 2.78E+03 CFU/mm^2 and 4.73E+03 CFU/mm^2 and 1.05E+04 CFU/mm^2
Mean microbial load, Tissue (Group 4 (200 J/cm^2), N 3, without wounds L6, R5, R9): 2.64E+03 CFU/mm^2
TISSUE BIOPSY (CFU/mm^2) 24 hr. after treatment 2 (Group 4 = 200 J/cm2 treatment): 6.27E+03 CFU/mm^2 and 5.47E+02 CFU/mm^2 and 1.11E+03 CFU/mm^2 and 8.35E+03 CFU/mm^2 and 3.36E+03 CFU/mm^2
